{"source": "patent US20210008095A1", "about": "“METHODS FOR TREATING MUSCULAR DYSTROPHY” (Sarepta Therapeutics, Inc., priority 2015, published 2021)", "key": {"[1]": {"test_system": "patients with Duchenne muscular dystrophy (DMD) amenable to exon 51 skipping", "assay": "North Star Ambulatory Assessment (NSAA)", "assay_type": "in vivo, human", "design": "key to Year 3 NSAA Score: sum of activity scores, each 2 = normal to 0 = unable independently", "text": "Due to decreases in muscle function in patients with DMD, ambulation is often lost during disease progression. Ambulation can be measured through various methods, including the North Star Ambulatory Assessment (NSAA). The NSAA was developed by the Physiotherapy Assessment and Evaluation Group of the North Start Clinical Network to assess ambulant boys with DMD, and provides a list of activities that are scored from 2-0, with 2 being normal and 0 being “unable to achieve independently” (2006-2011 MDC/North Star Clinical Network). These activities range from standing for a minimum of 3 seconds to climbing up and down a box to running. In certain embodiments, treatment with eteplirsen may maintain, stabilize, increase, or improve ambulation, for example, as determined by the NSAA.\n(§1) The 6MWT was administered using the protocol established for patients with DMD by McDonald, et al. (Muscle Nerve, 2010; 42:966-74; Muscle Nerve, 2010; 41:500-10 herein incorporated by reference), except there was no use of the StepWatch actimetry device. Exploratory functional outcomes included the North Star Ambulatory Assessment, quantitative muscle testing, the 9-Hole Peg Test, pulmonary function testing (PFT), timed function tests, and assessment of quality of life."}, "[2]": {"test_system": "exon 51 of the human dystrophin gene", "assay": "Exon 51 skipping in patient muscle biopsy at week 180", "assay_type": "in vivo", "conditions": "180 weeks", "description": "Patients continued weekly dosing with 30 or 50 mg/kg eteplirsen under Study 202 (Study no. 4658-us-202; ClinicalTrials.gov Identifier: NCT01540409) a long-term, open-label extension study. All efficacy assessments continued to be performed during Study 202, including a third biopsy (in the left deltoid muscle) in all patients at week 48. A voluntary fourth biopsy ( 11/12 patients) was performed at week 180. Monitoring of adverse events continued throughout the study."}, "[3]": {"test_system": "patients with Duchenne muscular dystrophy (DMD) amenable to exon 51 skipping", "assay": "Pulmonary function testing (MIP, MEP, FVC)", "assay_type": "in vivo, human", "conditions": "baseline through Week 192", "text": "In some embodiments, treatment with eteplirsen slows or reduces the progressive respiratory muscle dysfunction and/or failure in patients with DMD that would be expected without treatment. In some embodiments, treatment with eteplirsen stabilizes respiratory muscle function in patients with DMD. In one embodiment, treatment with eteplirsen may reduce or eliminate the need for ventilation assistance that would be expected without treatment. In one embodiment, measurements of respiratory function for tracking the course of the disease, as well as the evaluation of potential therapeutic interventions include Maximum inspiratory pressure (MIP), maximum expiratory pressure (MEP) and forced vital capacity (FVC). MIP and MEP measure the level of pressure a person can generate during inhalation and exhalation, respectively, and are sensitive measures of respiratory muscle strength. […]\nas §1"}, "[4]": {"test_system": "patients with Duchenne muscular dystrophy (DMD) amenable to exon 51 skipping", "assay": "Ability to rise independently from supine / rise time", "assay_type": "in vivo, human", "text": "In some embodiments, muscle function in a DMD patient may be assessed for ability to rise from a supine position without external assistance (independently). In some embodiments, the assessment can include whether or not the subject has the ability to rise from a supine position. In some embodiments, the assessment includes the time (e.g., in seconds) it takes for the patient to rise from a supine position without external assistance. Such measurements are well known to the skilled artisan and are described in, e.g., Bushby and Connor (2011) Clin Investig (Lond.) 1(9):1217-1235 and Henricson et al. (2013) Muscle Nerve 48(1):55-67, the disclosures of each of which are incorporated herein by reference in their entirety. In some embodiments, a patient treated by any of the methods described herein has lost the ability to rise independently from a supine position prior to beginning treatment with eteplirsen. In some embodiments, the patient lost the ability to rise independently from a supine position at least one (e.g., at least two, three, four, five, six, seven, eight, nine, 10, 11, 12, 16, 18, 20, 24, or more) month(s) prior to beginning treatment with eteplirsen. In some embodiments, a patient treated by any of the methods described herein loses the ability to rise independently from a supine position while being treated with eteplirsen. In some embodiments, the patient loses the ability to rise independently from a supine position at least one (e.g., at least two, three, four, five, six, seven, eight, nine, 10, 11, 12, 16, 18, 20, 24, 30, or 36 or more) month(s) after commencing treatment with eteplirsen.\nas §1"}, "[5]": {"assay": "Safety and tolerability monitoring, Study 201/202", "assay_type": "in vivo, human", "description": "Safety was assessed by evaluation of adverse events, vital signs, physical examinations, electrocardiograms, echocardiograms, and clinical laboratory testing. In addition, kidney function was monitored via regular assessments of serum cystatin C and urine cystatin C and KIM-1."}, "[6]": {"conditions": "individual ambulatory subjects (n=10), year of loss of ability in brackets"}}, "note": "Several values for one entry are separate records, joined by “and”; a condition that tells them apart may be missing. Equal values may be shown once. Entries after “also recorded” stand apart in the source; their conditions may differ."}
{"substance": "RNA, [P-deoxy-P-(dimethylamino)](2′,3′-dideoxy-2′,3′-imino-2′,3′-seco)(2′a→5′)(C-m5U-C-C-A-A-C-A-m5U-C-A-A-G-G-A-A-G-A-m5U-G-G-C-A-m5U-m5U-m5U-C-m5U-A-G), 5′-[P-[4-[[2-[2-(2-hydroxyethoxy)ethoxy]ethoxy]carbonyl]-1-piperazinyl]-N,N-dimethylphosphonamidate] (antisense CTCCAACATCAAGGAAGATGGCATTTCTAG; all phosphorodiamidate morpholino (PMO); 5' piperazinyl triethylene glycol carbamate tail on phosphonamidate, further chemistry not fully specified) [eteplirsen]", "values": [{"measurement": "rate of decline in NSAA score", "setting": "[1]; at 2 and 3 years following treatment, vs external control", "result": "slower rate of decline in NSAA score"}, {"measurement": "difference in NSAA score compared to the external control group cohort", "setting": "[1]; at 3 years", "result": 2.6, "unit": "points"}, {"measurement": "Year 3 NSAA Score", "setting": "[1]; individual ambulatory subjects (n=10)", "result": "13 (3×) and 14 and 24 and 25 (2×) and 7 and 8 and 11"}, {"measurement": "exon 51 skipping", "setting": "[2]", "result": "all patients had measurable exon 51 skipping"}, {"measurement": "pulmonary function (MIP, MEP, FVC)", "setting": "[3]", "result": "continued stabilization of pulmonary function; also recorded: either maintained or had only a slight decline in all of MIP, MEP, and FVC"}, {"measurement": "number of patients who lost the ability to rise without external support", "setting": "[4]; from years 1 to 3", "result": "four"}, {"measurement": "Year 3 Rise Time", "setting": "[4]; [6]", "result": "24.1 s and 17.9 s and 13.1 s and 8.9 s and 8.2 s and 6.2 s"}, {"measurement": "Year 3 Rise Time(s)", "setting": "[4]; [6]", "result": "Unable to rise"}, {"measurement": "drug-related serious adverse events", "setting": "[5]; over 2300 doses, 192 week treatment period", "result": "no drug-related serious adverse events"}, {"measurement": "chemistries: hematologic, renal, coagulation or liver functions", "setting": "[5]; through 216 weeks of treatment", "result": "no clinically significant changes in hematologic, renal, coagulation or liver functions"}, {"measurement": "electrocardiograms, echocardiograms and PFTs", "setting": "[5]; through 216 weeks of treatment", "result": "remained stable"}, {"measurement": "physical examination and vital signs", "setting": "[5]; through 216 weeks of treatment", "result": "no clinically significant changes"}, {"measurement": "tolerability: adverse events, discontinuations, missed doses", "setting": "[5]; through 216 weeks of treatment", "result": "well tolerated with no treatment-related adverse events, serious adverse events, discontinuations or missed doses"}]}
